Test results: publication PMC12036197, “Green synthesis of PEGylated iron oxide nanoparticles of Eriobotrya japonica leaves extract in combination with B3, against Plasmodium falciparum 3D7 strain” (Tropical Medicine and Health, 2025)

What was measured:
[1] = tested on: Plasmodium falciparum 3D7; experiment: Growth inhibition of Plasmodium falciparum 3D7 in RPMI 1640 culture medium, single drugs; type: cell-based; settings: for Growth inhibition rate: highest growth inhibition, RPMI 1640, 24 h
Protocol: Plates with a capacity of 4 ml or T25 culture flasks were employed for the cultivation of parasites. CCM culture medium and blood (to sustain a hematocrit of 10% within the culture medium for the proliferation and replication of the parasite) were supplemented into the dishes. […] Parasites were multiplied in a CCM medium containing 10% hematocrit with O + human erythrocyte and albumax (0.5%) serving as a growth factor. The culture plates were incubated at 37 °c in a candle jar, with the fresh medium being replenished every 48 h. A thin blood smear was prepared from the sediment collected from each plate, followed by the quantification of parasites on 10,000 red blood cells.
To investigate the effect of drugs on the culture medium, two stages were conducted. The effect of the drug was performed when 80% of the parasites were in the ring stage and the parasitemia was 6%. […] In the first step, the drugs were treated separately and their IC50 was measured. For plant extract, dilutions of 100, 200, 400 and 800 µg/mL (dry extract) of culture medium were done in 12 wells of a 96-well plate (in triplicate).
For polyethylene glycol, dilutions of 10, 100, 1000 and 10000 µg/mL of culture medium were done in 12 wells of a 96-well plate (in triplicate). For the nanoparticle produced by the PEGylated green synthesis method (PEG-HNPs) dilutions of 50, 100, 200, and 400 µg/mL culture medium were done in 12 wells of 96-well plates (in triplicate). In the second step, the effect of the IC50 combination of drugs with each other was investigated by the Fix ratio method on the culture medium. In this way, the percentage ratio of 0, 10, 30, 50, 70, 90, and 100 of one drug was combined with another drug and it was given an effect on the culture medium, and their synergistic and antagonistic effect was investigated by affecting the amount of parasitemia. Negative control consisted of 15 μL of freshly washed RBC plus 85 μL of CCM. […] Statistical analysis was done using GraphPad prism9 software and the results were analyzed with one-way ANOVA. […]

[2] = tested on: red blood cells; experiment: Hemolytic test; type: cell-based, human; settings: 3 h incubation
Protocol: To conduct the hemolytic test on the hydroalcoholic extract of […], nicotinamide, and green-synthesized nanoparticles, 5 mL of fresh whole blood with heparin anticoagulant was obtained from a healthy volunteer. After centrifugation and washing with PBS, 1% blood suspension was prepared. In each well of three microplates, 100 µL of the prepared blood was added. Subsequently, 100 µL of the hydroalcoholic extract, nicotinamide, and green-synthesized nanoparticles with concentrations of 0.1, 1, 10, 50, 100 and 200 µg/mL, were added into the second to seventh wells of all three microplates, respectively. The first wells served as negative controls, containing an equal volume of PBS, while the eighth wells were positive controls, containing 100 µL of Triton X-100. After 3 h of incubation and centrifugation, the optical absorbance of the supernatant was measured at a wavelength of 540 nm. The percentage of drug-induced hemolysis was calculated using the following formula [28]: Percenthemolysis%=ODtest-ODnegativecontrol/ODpositivecontrol-ODnegativecontrol×100.
Investigating the hemolytic effect of Eriobotrya japonica hydroalcoholic extract (herbal extract), nicotinamide (NAM), and PEGylated green synthesized iron oxide nanoparticles (HNPs) on red blood cells at concentrations of 0.1, 1, 10, 50, 100 and 200 µg/mL were evaluated (Table 3). The optical absorbance of PBS was measured as negative control 0.01 and the optical absorbance of Triton X-100 was measured as positive control 1.00 (Fig. 5).

polyethylene glycol 600 [PEG]
Growth inhibition rate ([1]; concentration 10000 µg/ml): 71%

NC(=O)c1cccnc1 [NAM, nicotinamide]
Percentage of drug hemolysis ([2]; drug concentration 0.1 µg/mL): 1%
Percentage of drug hemolysis ([2]; drug concentration 1 µg/mL): 2%
Percentage of drug hemolysis ([2]; drug concentration 10 µg/mL): 4%
Percentage of drug hemolysis ([2]; drug concentration 50 µg/mL): 6%
Percentage of drug hemolysis ([2]; drug concentration 100 µg/mL): 8%
Percentage of drug hemolysis ([2]; drug concentration 200 µg/mL): 9%
Growth inhibition rate ([1]; concentration 3000 µg/ml): 94%

CCN(CC)CCCC(C)Nc1ccnc2cc(Cl)ccc12 (stereo not drawn) [CQ, chloroquine diphosphate]
inhibition at 8 µg/mL ([1]; Plasmodium falciparum, 3D7, 24 h, read-out: Growth inhibition rate): 95%
